Measurements published in publication PMC7156458, “Synthetic biology based construction of biological activity-related library of fungal decalin-containing diterpenoid pyrones” (Nature Communications, 2020).
Like-named read-outs stand apart in the source and are kept apart here.

What was measured:
l(2)mbn cells = assay: cytotoxicity in Drosophila l(2)mbn cells; format: cell-based; details: for Luminescence Raw1: replicate 1; for Luminescence Raw2: replicate 2; for % viability, viability 1: replicate 1, relative to DMSO 1%; for % viability, viability 2: replicate 2, relative to DMSO 1%
Protocol: (§1) We screened the DDPs on the Drosophila assay system for cytotoxicity, inhibitory activity of innate immune signalling and insecticidal activity. The cytotoxicity of the DDPs was evaluated using two cell lines, embryonic macrophage-derived DL1 cells[58]–[60] and larval blood cell-derived l(2)mbn cells, and their IC50 values are listed in Supplementary Table 23.

[1] = cytotoxicity in Drosophila l(2)mbn cells; format: cell-based; details: Drosophila, l(2)mbn cells (larval blood cell-derived)
Protocol: as §1

[2] = Drosophila melanogaster, cytotoxicity, average±SEM, read-out: IC50
[3] = replicate 1, relative to DMSO 1%, read-out: % viability, viability 1
[4] = replicate 2, relative to DMSO 1%, read-out: % viability, viability 2
[5] = Drosophila melanogaster, cytotoxicity, average of two replicates, read-out: IC50 Average
[6] = Drosophila melanogaster, cytotoxicity, replicate 1, read-out: IC50 (1)
[7] = Drosophila melanogaster, cytotoxicity, replicate 2, read-out: IC50 (2)
[8] = cytotoxicity, average of two replicates, read-out: IC50 Average
[9] = cytotoxicity, average±SEM, read-out: IC50
[10] = cytotoxicity, replicate 1, read-out: IC50 (1)
[11] = cytotoxicity, replicate 2, read-out: IC50 (2)

Compound | Luminescence Raw1 (l(2)mbn cells; 0.04 µM) | Luminescence Raw2 (l(2)mbn cells; 0.04 µM) | Luminescence Raw1 (l(2)mbn cells; 0.2 µM) | Luminescence Raw2 (l(2)mbn cells; 0.2 µM) | Luminescence Raw1 (l(2)mbn cells; 1 µM) | Luminescence Raw2 (l(2)mbn cells; 1 µM) | Luminescence Raw1 (l(2)mbn cells; 4 µM) | Luminescence Raw2 (l(2)mbn cells; 4 µM) | Luminescence Raw1 (l(2)mbn cells; 10 µM) | Luminescence Raw2 (l(2)mbn cells; 10 µM) | Luminescence Raw1 (l(2)mbn cells; 20 µM) | Luminescence Raw2 (l(2)mbn cells; 20 µM) | IC50 (l(2)mbn cells; [2]) | viability at 0.04 µM [1, 3] | viability at 0.04 µM [1, 4] | viability at 0.2 µM [1, 3] | viability at 0.2 µM [1, 4] | viability at 1 µM [1, 3] | viability at 1 µM [1, 4] | viability at 20 µM [1, 4] | other results
C=C1CCC2C(C)(CC(=O)C=C(C)C)C(O)CCC2(C)C1Cc1c(O)c(C)c(C)oc1=O (stereo not shown) [Compound 7] | 3452362 | 3328631 | 3304462 | 3461380 | 3578980 | 3388873 | 3312398 | 3370476 | 3097048 | 2956371 | 1044161 | 1013149 | > 20000 nM | 135% | 130% | 129% | 135% | 139% | 132% | 39.5% | viability at 4 µM [1, 3]: 129%; viability at 4 µM [1, 4]: 131%; viability at 10 µM [1, 3]: 121%; viability at 10 µM [1, 4]: 115%; viability at 20 µM [1, 3]: 40.7%
C=C1CC[C@@H]2[C@](C)(CC[C@H]3O[C@H](C=C(C)C)C[C@@]23C)[C@@H]1Cc1c(OC)oc(CO)c(C(=O)OC)c1=O [Compound 21] | – | – | – | 2750409 | 2523535 | – | – | – | – | – | – | – | 2660 ± 220 nM | – | – | – | – | – | – | – | Luminescence Raw1 (l(2)mbn cells; 0.4 µM): 2719029; Luminescence Raw2 (l(2)mbn cells; 0.4 µM): 2813892; Luminescence Raw1 (l(2)mbn cells; 0.8 µM): 2929318; Luminescence Raw2 (l(2)mbn cells; 0.8 µM): 2922825; IC50 (l(2)mbn cells; [5]): 2660 nM; IC50 (l(2)mbn cells; [6]): 2440 nM; IC50 (l(2)mbn cells; [7]): 2880 nM
C=C1CCC2C(C)(CCC=C(C)C)C(O)CCC2(C)C1Cc1c(O)c(C)c(C)oc1=O (stereo not shown) [Compound 4] | 5839335 | 5201728 | 5720253 | 5444207 | 5427969 | 5886607 | 5612720 | 6637959 | 900951 | 1318179 | 296971 | 325456 | – | – | – | – | – | – | – | – | % viability, viability 1 (l(2)mbn cells; 0.04 µM): 92.9944%; % viability, viability 2 (l(2)mbn cells; 0.04 µM): 82.8402%; % viability, viability 1 (l(2)mbn cells; 0.2 µM): 91.0979%; % viability, viability 2 (l(2)mbn cells; 0.2 µM): 86.7018%; % viability, viability 1 (l(2)mbn cells; 1 µM): 86.4432%; % viability, viability 2 (l(2)mbn cells; 1 µM): 93.7472%; % viability, viability 1 (l(2)mbn cells; 4 µM): 89.3854%; % viability, viability 2 (l(2)mbn cells; 4 µM): 105.713%; % viability, viability 1 (l(2)mbn cells; 10 µM): 14.3481%; % viability, viability 2 (l(2)mbn cells; 10 µM): 20.9927%; % viability, viability 1 (l(2)mbn cells; 20 µM): 4.729%; % viability, viability 2 (l(2)mbn cells; 20 µM): 5.183%; IC50 (l(2)mbn cells; [8]): 6440 nM; IC50 (l(2)mbn cells; [9]): 6440 ± 940 nM; IC50 (l(2)mbn cells; [10]): 5500 nM; IC50 (l(2)mbn cells; [11]): 7390 nM
C=C1CC[C@H]2[C@]3(C)C[C@@H](C=C(C)C)O[C@H]3CC[C@]2(C)[C@@H]1Cc1c(O)c(C)c(C)oc1=O [Compound 5, subglutinol A] | 3571044 | 3503586 | 510842 | 436923 | 230676 | 218056 | 213369 | 193177 | 210485 | 206518 | 196783 | 198586 | 190 ± 10 nM | 139% | 137% | 19.9% | 17% | 8.99% | 8.5% | 7.74% | IC50 (l(2)mbn cells; [5]): 190 nM; IC50 (l(2)mbn cells; [6]): 194 nM; IC50 (l(2)mbn cells; [7]): 180 nM; viability at 4 µM [1, 3]: 8.31%; viability at 4 µM [1, 4]: 7.53%; viability at 10 µM [1, 3]: 8.2%; viability at 10 µM [1, 4]: 8.05%; viability at 20 µM [1, 3]: 7.67%
C=C1CC[C@H]2[C@]3(C)C[C@H](C=C(C)C)O[C@H]3CC[C@]2(C)[C@@H]1Cc1c(O)c(C)c(C)oc1=O [Compound 6, subglutinol B] | 3229071 | 3538217 | 3288590 | 2991720 | 424303 | 530313 | 220220 | 206879 | 225268 | 189211 | 213009 | 187048 | 850 ± 10 nM | 126% | 138% | 128% | 117% | 16.5% | 20.7% | 7.29% | IC50 (l(2)mbn cells; [5]): 850 nM; IC50 (l(2)mbn cells; [6]): 860 nM; IC50 (l(2)mbn cells; [7]): 838 nM; viability at 4 µM [1, 3]: 8.58%; viability at 4 µM [1, 4]: 8.06%; viability at 10 µM [1, 3]: 8.78%; viability at 10 µM [1, 4]: 7.37%; viability at 20 µM [1, 3]: 8.3%
C=C1CCC2C(C)(CCC=C(C)C)C(O)CCC2(C)C1Cc1c(O)c(C)c(C)oc1=O (stereo not shown) [Compound 9, higginsianin B] | 5700406 | 5730357 | 5787371 | 5991618 | 5334874 | 5292296 | 375575 | 295889 | 141567 | 144091 | 140485 | 188801 | – | 90.8% | 91.3% | 92.2% | 95.4% | 85% | 84.3% | 3.01% | % viability, viability 1 (l(2)mbn cells; 4 µM): 5.981%; % viability, viability 2 (l(2)mbn cells; 4 µM): 4.712%; % viability, viability 1 (l(2)mbn cells; 10 µM): 2.255%; % viability, viability 2 (l(2)mbn cells; 10 µM): 2.295%; % viability, viability 1 (l(2)mbn cells; 20 µM): 2.2373%; IC50 (l(2)mbn cells; [8]): 1540 nM; IC50 (l(2)mbn cells; [9]): 1540 ± 10 nM; IC50 (l(2)mbn cells; [10]): 1540 nM; IC50 (l(2)mbn cells; [11]): 1540 nM
C=C1CCC2C(C)(CCC=C(C)C)C(O)CCC2(C)C1Cc1c(OC)oc(C)c(C)c1=O (stereo not shown) [Compound 15, viridoxin A hydrolysate] | 5571583 | 5591430 | 6221854 | 5568336 | 6094827 | 5439516 | 5005443 | 4514031 | 362955 | 319326 | 109116 | 229184 | – | – | – | – | – | – | – | – | % viability, viability 1 (l(2)mbn cells; 0.04 µM): 88.7303%; % viability, viability 2 (l(2)mbn cells; 0.04 µM): 89.0464%; % viability, viability 1 (l(2)mbn cells; 0.2 µM): 99.0862%; % viability, viability 2 (l(2)mbn cells; 0.2 µM): 88.6786%; % viability, viability 1 (l(2)mbn cells; 1 µM): 97.0632%; % viability, viability 2 (l(2)mbn cells; 1 µM): 86.6271%; % viability, viability 1 (l(2)mbn cells; 4 µM): 79.7142%; % viability, viability 2 (l(2)mbn cells; 4 µM): 71.8882%; % viability, viability 1 (l(2)mbn cells; 10 µM): 5.78%; % viability, viability 2 (l(2)mbn cells; 10 µM): 5.085%; % viability, viability 1 (l(2)mbn cells; 20 µM): 1.738%; % viability, viability 2 (l(2)mbn cells; 20 µM): 3.65%; IC50 (l(2)mbn cells; cytotoxicity, average±SEM): 5230 ± 190 nM; IC50 (l(2)mbn cells; read-out: IC50 (1), cytotoxicity, replicate 1): 5420 nM; IC50 (l(2)mbn cells; read-out: IC50 (2), cytotoxicity, replicate 2): 5040 nM; IC50 (l(2)mbn cells; read-out: IC50 Average, cytotoxicity, average of two replicates): 5230 nM
